Assay results taken from patent US11685741B2, “Fluorescent probes” (University of Massachusetts, priority 2017, dated 2023).
Several values for one entry are separate records, joined by “and”; a condition that tells them apart may be missing. Equal values may be shown once.

Key:
[1] = Binding studies of sensor with Fe3+ (Job's plot, titration, EDTA reversibility)
Description: Job's method and UV-vis spectra were applied to study the binding stoichiometry between Rh-PK and Fe^3+ and monitored by the absorbance at 555 nm. […] The binding constant of this complex was calculated following a method reported previously (G. E. Tumambac, et al., Tetrahedron 2004, 60, 11293-11297), using absorption values at […] by the equations described below, and was determined to be 1.54×10^7 […].
The equations below was used to calculate the binding constants with stoichiometry of 1:1. L+S↔LS where L=sensor, S=Fe3+ and LS=sensor-Fe^3+ complex. The apparent binding constant is given by
[formula] Fe is the fraction of L that formed a complex, [LS]e is concentration at equilibrium, [L]0 is the initial concentration. Au, Am, and Ac are the absorbances of solutions of L (before any Fe^3+ was added), during the titration and at saturation, respectively. The concentration of free Fe^3+ at equilibrium, [S]e, is found with the following identity. [S]e=[S]o−[LS]e=[S]o−Fc[L]o The apparent binding constant K can then be calculated from
Reversibility experiments were carried out by adding EDTA to the complex in ACN/Tris-HCl buffer (10 mM, pH 7.3, v/v 3:1). […]
The stoichiometry of RhHPA-Fe^3+ was measured using Job's plot and mole ratio plots methods. B. Valeur, Molecular Fluorescence: Principles and Applications, Wiley-VCH. […] To determine the binding constant of chemosensor, a fluorescence titration of different amounts of Fe^3+ into the acetonitrile solution of sensor was carried out. […] The determination of the binding constant of RhHPA was calculated using the following equation: F−Fmin=[…](Fmax−Fmin)/Kd where F is the observed fluorescence, Fmax is the maximum fluorescence for the RhHPA-Fe^3+ complex at concentration of the equal reacted between sensor and metal cation, Fmin is the fluorescence intensity for occurring RhHPA-Fe^3+.
Absorption enhancement observation at 558 nm was plotted against the molar value of the [Fe^3+]/[Fe^3+]+RhHPA and [Fe^3+]/RhHPA. […] Binding constant of fluorescent sensor “RhHPA” was calculated and it was found as K=1.27×10^7 M^−1. […]

[2] = Metal ion sensing: UV-vis and fluorescence response to Fe3+ and other metal ions
Description: The spectroscopic properties of Rh-PK and its interactions with various metal ions were evaluated in acetonitrile (ACN)/Tris-HCl buffer (10 mM, pH 7.3, v/v, 3:1). […] The changes in UV-Vis spectra after the addition of various ions are shown in FIG. 2, which is an absorbance spectrum of 100 μM sensor with various metal ions (100 μM for Ni^+2, Cu^+, Cu^+2, Zn^+2, Pb, Fe^+2, Fe^+3, Cr^+3, Hg^+2, Mn^+2, Ag^+, and Co^+2; 200 μM for K^+, Na^+, Ca^2+ and Mg^2+) in the ACN/Tris buffer (10 mM, pH 7.3, v/v 3:1).
When Fe^3+ was added into the solution of Rh-PK, a significant enhancement of fluorescence (>12-fold with 1.0 equiv of Fe^3+) was observed.
The interferences from the other metal ions with Rh-PK in its response to Fe^3+ was examined. […] Each of the 12 metal ions was pre-incubated with Rh-PK before 1 equiv. of Fe^3+ was added, the fluorescence response was then measured.
The stock solution of sensor and metal ions were prepared at the concentration of 1 mM. M. P. Walkees, Mutat. Res., 2003, 533, 107; M. Waisberg, et al., Toxicology, 2003, 192, 95.
The UV-vis. and fluorescence spectra of RhHPA to various possible interfering metal ions and its selectivity for Fe^3+ were examined. See FIG. 6, which is a plot of absorbance dependent on the concentration of Fe^3+ in the range from 0 to 2 equivalents in ACN/Tris-HCl buffer (10 mM, pH 7.3, v/v 2:1); FIG. 7, which is a Job's plot between Fe^3+ and RhHPA, indicating the 1:1 binding mode for sensor and iron(III). […] Addition of Na^+, K^+, Ca^2+, Mg^2+, Cr^3+, […], Hg^2+, Cu^2+, Pb^2+, Zn^2+, Fe^2+, Co^2+, Ni^2+, and Ag^+ exerted little or no effect on the emission of RhHPA, while remarkable fluorescence enhancement was detected upon the addition of Fe^3+ by excitation of the rhodamine fluorophore at 535 nm.
Experiments of iron(III) with other metal ions were investigated by means of the fluorescence response of RhHPA toward Fe^3+ in the presence of various other metal ions such as Na^+, K^+, Ca^2+, Mg^2+, Cr^3+, Hg^2+, Cu^2+, Pb^2+, Zn^2+, Fe^2+, Co^2+, Ni^2+, Cd^2+, and Ag^+. […] for Fe^3+ had no changes with addition of other metal ions. Cu(II) and Zn(II) increased the fluorescence intensity slightly.

[3] = Rh-PK + Fe^3+, ACN/Tris-HCl buffer pH 7.3 v/v 3:1

- binding constant ([1]; 1:1 Fe^3+-Rh-PK complex, from absorption titration): 1.54e+07 M⁻¹
- apparent binding constant ([1]; 1:1 sensor-Fe^3+ complex, ACN/Tris-HCl buffer pH 7.3): 1.54e+07 M⁻¹
- Φ [2, 3]: 0.173
- ε of absorption peak at 555 nm [2, 3]: 3200 M⁻¹ cm⁻¹
SMILES: CCN(CC)c1ccc2c(c1)Oc1cc(N(CC)CC)ccc1C21c2ccccc2C(=O)N1CC/N=C(\C)c1cccc(C(C)=O)n1 [Rh-PK, (E)-2-(2-((1-(6-acetylpyridin-2-yl)ethylidene)amino)ethyl)-3′,6′-bis(diethylamino)spiro[isoindoline-1,9′-xanthen]-3-one]
- increase in fluorescence emission intensity ([2]; one equivalent Fe^3+, ACN/Tris-HCl buffer pH 7.3): ~12 fold and > 12 fold
